Experimental data: publication PMC3282010 (The AAPS Journal, 2011)
Read-outs that look alike come from different tables or passages of the source. Marks after values point to notes of the source that are not given here.

Tests used:
OATP1B1 [1] = biological target: T1, OATP1B1 (Homo sapiens, UniProt Q9Y6L6)
OATP1B3 [2] = biological target: T2, OATP1B3 (Homo sapiens, UniProt Q9NPD5)
[3] = for Total plasma concentration at steady-state: healthy subjects, 10-mg once-daily regimen; for Ratio of geometric means of AUCτ / Ratio of geometric means of C tr: macitentan + Cs vs macitentan; for Ratio of geometric means of AUCτ: AUC(384h-408h)/AUC(96h-120h); for Ratio of geometric means of C tr: period 2 versus period 1
[4] = human, in vivo
wild-type CHO cells = conditions: 3 μM, incubation for 40 s, 37°C; mean ± SD
OATP1B1 [5] = biological target: T1, OATP1B1; conditions: for Uptake into OATP1B1 over-expressing cells: 3 μM, incubation for 40 s, 37°C, mean ± SD; for Difference in uptake rate between wild-type and OATP over-expressing cells: OATP1B1, different concentrations tested (Fig. 6)
OATP1B3 [6] = biological target: T2, OATP1B3; conditions: for Uptake into OATP1B3 over-expressing cells: 3 μM, incubation for 40 s, 37°C, mean ± SD; for Difference in uptake rate between wild-type and OATP over-expressing cells: OATP1B3, different concentrations tested (Fig. 6)
OATP1B1 [7] = biological target: T1, OATP1B1; conditions: OATP inhibition IC50 versus free plasma concentration
clinical [8] = conditions: human, plasma, oral, AUCτ, part A, macitentan + Cs, 384–408 h (day 17 of period 2), steady-state, geometric mean (95% CI)
clinical [9] = conditions: human, in vivo, AUCτ
[10] = cited from earlier work
[11] = cited from earlier work; remark: listed apart in the source
[12] = test system: endothelin ETA and ETB receptor; conditions: dual ERA; cited from earlier work
[13] = strong CYP3A4 inhibitor; cited from earlier work
[14] = in humans, after the first day of co-administration of Cs; cited from earlier work
[15] = macitentan + Cs versus macitentan alone
[16] = part A, macitentan + Cs, 384–408 h (day 17 of period 2), geometric mean (95% CI)
[17] = part A, macitentan alone, 96–120 h (day 5 of period 1), geometric mean (95% CI)

T2 sequence (Q9NPD5 whole entry): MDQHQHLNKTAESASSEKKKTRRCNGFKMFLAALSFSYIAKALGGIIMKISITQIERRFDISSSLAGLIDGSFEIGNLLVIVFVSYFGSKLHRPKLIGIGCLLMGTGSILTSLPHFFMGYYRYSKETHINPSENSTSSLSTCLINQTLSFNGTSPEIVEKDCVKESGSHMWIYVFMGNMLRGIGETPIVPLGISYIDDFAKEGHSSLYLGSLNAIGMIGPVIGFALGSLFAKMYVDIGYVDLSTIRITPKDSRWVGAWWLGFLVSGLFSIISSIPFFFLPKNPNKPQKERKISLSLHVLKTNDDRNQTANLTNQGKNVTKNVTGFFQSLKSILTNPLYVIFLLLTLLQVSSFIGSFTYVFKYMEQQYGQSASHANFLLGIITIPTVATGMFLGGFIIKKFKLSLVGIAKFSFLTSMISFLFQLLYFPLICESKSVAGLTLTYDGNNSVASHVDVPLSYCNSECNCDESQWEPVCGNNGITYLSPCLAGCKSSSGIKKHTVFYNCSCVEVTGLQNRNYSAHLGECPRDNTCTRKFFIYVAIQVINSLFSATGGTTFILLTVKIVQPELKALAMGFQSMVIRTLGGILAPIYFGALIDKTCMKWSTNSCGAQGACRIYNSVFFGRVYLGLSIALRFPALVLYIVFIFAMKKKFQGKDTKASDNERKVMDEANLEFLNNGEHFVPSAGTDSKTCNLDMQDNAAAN
T1 sequence (Q9Y6L6 whole entry): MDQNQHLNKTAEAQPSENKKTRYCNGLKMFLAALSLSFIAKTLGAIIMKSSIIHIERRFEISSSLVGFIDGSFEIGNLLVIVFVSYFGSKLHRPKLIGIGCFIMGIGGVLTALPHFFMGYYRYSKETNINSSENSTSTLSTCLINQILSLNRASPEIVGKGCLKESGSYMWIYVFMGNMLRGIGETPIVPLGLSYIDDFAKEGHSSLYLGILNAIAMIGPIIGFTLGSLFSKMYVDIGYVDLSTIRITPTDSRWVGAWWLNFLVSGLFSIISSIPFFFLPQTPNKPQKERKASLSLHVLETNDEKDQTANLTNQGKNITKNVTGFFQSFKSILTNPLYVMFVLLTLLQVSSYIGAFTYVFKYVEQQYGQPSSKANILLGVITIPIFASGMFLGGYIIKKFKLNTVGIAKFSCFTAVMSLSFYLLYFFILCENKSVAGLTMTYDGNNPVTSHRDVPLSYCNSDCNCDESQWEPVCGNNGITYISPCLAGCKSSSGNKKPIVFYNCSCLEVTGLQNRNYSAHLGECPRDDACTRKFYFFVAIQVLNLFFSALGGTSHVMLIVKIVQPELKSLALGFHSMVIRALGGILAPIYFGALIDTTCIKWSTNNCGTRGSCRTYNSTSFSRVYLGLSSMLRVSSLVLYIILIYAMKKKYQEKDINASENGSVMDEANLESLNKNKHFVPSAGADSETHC

Structure (SMILES)	IC50 (OATP1B1 [1])	Total plasma concentration at steady-state [3]	Ratio of geometric means of AUCτ ([3]; part A)	Ratio of geometric means of C tr ([3]; part A)	C tr [3, 16]	C tr [3, 17]	Decrease of steady-state AUCτ in the presence of rifampin [4]	Ratio of geometric means of AUCτ [4]	Ratio of geometric means of C tr [4]	Uptake into wild-type cells (wild-type CHO cells)	Uptake into OATP1B1 over-expressing cells (OATP1B1 [5])	Difference in uptake rate between wild-type and OATP over-expressing cells (OATP1B1 [5])	Uptake into OATP1B3 over-expressing cells (OATP1B3 [6])	Difference in uptake rate between wild-type and OATP over-expressing cells (OATP1B3 [6])	Free steady-state plasma concentration lower than the lowest IC50 determined (OATP1B1 [7])	AUC (clinical [8])	elimination half-life (t 1/2) ([10]; in humans)	Binding to human plasma proteins in vitro [11]	Increase of steady-state AUCτ in the presence of Cs [3, 15]	other results
NS(=O)(=O)Nc1ncnc(OCCOc2ncc(Br)cn2)c1-c1ccc(Br)cc1 [ACT-132577]	19.9 ± 1.4 µM	~1.5 µM	0.97 ng·h/mL	1.02 ng·h/mL	640 (550, 745) ng/mL	626 (547, 717) ng/mL	0.3%	1.00 ng·h/mL	0.83^a ng·h/mL	214 ± 11 pmol/mg	237 ± 7 pmol/mg	No marked difference	288 ± 10 pmol/mg	No marked difference	around 2,490 fold	16400 ng·h/mL	approximately 48 h	99.5%		IC50 (OATP1B3 [2]): 51.6 ± 3 µM; Systemic exposure in humans relative to macitentan (higher) ([3]; in humans): 2.5 fold; Decrease of steady-state AUCτ in the presence of Cs [3, 15]: 3%; AUCτ [4]: 14,798 (13,216, 16,569) ng·h/mL; AUC (clinical [9]): 14800 ng·h/mL; Potency in vitro relative to macitentan (less potent) [12]: approximately five-fold
CCCNS(=O)(=O)Nc1ncnc(OCC(=O)O)c1-c1ccc(Br)cc1 [ACT-373898]			1.07^a ng·h/mL	1.12^a ng·h/mL	20 (15, 26) ng/mL	17 (13, 24) ng/mL	64%	0.36^a ng·h/mL	0.14^a ng·h/mL										7%	AUCτ ([3]; part A, macitentan + Cs, 384–408 h (day 17 of period 2), steady-state, plasma, geometric mean (95% CI)): 568 (432, 747) ng·h/mL
CCCNS(=O)(=O)Nc1ncnc(OCCOc2ncc(Br)cn2)c1-c1ccc(Br)cc1 [Macitentan]	6.3 ± 0.7 µM	approximately 0.63 μM	1.10^a ng·h/mL	1.38^a ng·h/mL	220 (176, 274) ng/mL	159 (121, 209) ng/mL	79%	0.21^a ng·h/mL	0.07^a ng·h/mL	346 ± 3 pmol/mg	362 ± 6 pmol/mg	No marked difference	387 ± 11 pmol/mg	No marked difference	around 2,490 fold	7560 ng·h/mL	approximately 16 h	99.6%	10%	Tolerability ([3]; co-administered with Cs, healthy male subjects): well tolerated; Subjects affected by treatment-emergent AEs ([3]; part A, period 1 (macitentan alone), 10 subjects): 30%; Reduction in exposure in the presence of rifampin [4]: approximately four-fold; Tolerability [4]: well tolerated; Time to maximum plasma concentrations after administration ([10]; in humans): approximately 8 h; Tolerability ([10]; single-ascending dose study, doses of up to 300 mg): well tolerated; Increase of AUC0–∞ in the presence of ketoconazole [13]: approximately two-fold
COc1ccccc1Oc1c(NS(=O)(=O)c2ccc(C(C)(C)C)cc2)nc(-c2ncccn2)nc1OCCO [bosentan]																				Increase in exposure in the presence of Cs [14]: 30 fold
